PMC8034821 (The Journal of Venomous Animals and Toxins Including …, 2021)

Test system: krait (Bungarus sindanus) venom acetylcholinesterase (AChE)
Test: Ellman (DTNB) assay, Lineweaver-Burk plot
Assay type: biochemical
Conditions: no inhibitor; 50 mM phosphate pH 7.4; 25 or 37 °C (both printed); crude venom

Structure (SMILES): CC(=O)SCC[N+](C)(C)C [AcSCh]
- Km: 74.1 µM
